Experimental data taken from patent publication US20220054532A1, “VETERINARY COMPOSITIONS AND METHODS OF USE THEREFOR” (priority 2019, published 2022).

Key:
Type in all cases: in vivo
[1] = test system: dogs suffering from GI-specific inflammation; assay: Example 3: GI-specific inflammation, owner-rated symptom reduction (canine); conditions: symptom reduction score 0 (no reduction) to 4 (resolution of symptoms); for Final Score: after 28 days BID
Text: This example examines the ability of embodiments of the invention versus Pepcid® to treat unwanted GI-specific inflammation characterized by gastritis, reflux, vomiting, diarrhea, and inappetence.
The first patient group is twenty dogs suffering from GI-specific inflammation. The second patient group is twenty cats suffering from GI-specific inflammation. Each patient group is broken into five groups of four animals. The first groups receive Pepcid® as the sole active agent; the second groups receive a composition comprising HMW HA as the sole active agent; the third groups receive a composition comprising CBD as the sole active agent; the fourth groups receive a composition comprising HMW HA and CBD as the active agents; and the fifth groups receive a composition comprising HMW HA, CBD, and glutathione as the active agents.
Each composition is administered for a period of twenty-eight (28) days, BID. The owner observes potential reduction of symptoms at the end of treatment and rates the reduction as no reduction (score of 0), mild reduction (score of 1), moderate reduction (score of 2), significant reduction (score of 3), or resolution of symptoms (score of 4).
The following canine scores are observed and the results depicted in FIG. 3a: […]

[2] = test system: dogs suffering from joint inflammation; assay: Example 4: joint inflammation, thermal imaging (canine); conditions: over the inflamed joint, 60 days BID
Text: This example examines the ability of embodiments of the invention versus Cosequin® to treat joint inflammation.
The first patient group is twenty dogs suffering from joint inflammation. The second patient group is twenty cats suffering from joint inflammation. The third patient group is twenty horses suffering from joint inflammation. Each patient group is broken into five groups of four animals. The first groups receive Cosequin® as the sole active agent; the second groups receive a composition comprising HMW HA as the sole active agent; the third groups receive a composition comprising CBD as the sole active agent; the fourth groups receive a composition comprising HMW HA and CBD as the active agents; and the fifth groups receive a composition comprising HMW HA, CBD, Boswellia, and superoxide dismutase (“SOD”) as the active agents.
Each composition is administered for a period of sixty (60) days, BID. Efficacy is determined by a decrease in body temperature over the inflamed joint, as measured by thermal imaging (e.g., via Digatherm device). Thermal imaging is performed on days 0 (“Initial Score”), 15, 30, 45, and 60 (“Final Score”) of treatment.
The following canine scores are observed and the results depicted in FIG. 4a: […]

[3] = test system: dogs suffering from osteoarthritis; assay: Example 9: pain relief and side effects in canine osteoarthritis (CBD Complex); conditions: dogs with osteoarthritis, 4 weeks of administration, group average
Text: This example examines the ability of various compositions to minimize pain and examines the level of adverse side effects of each composition.
At the outset of the study, participants receive a full physical examination, including weight measurement, thigh circumference, and CBC/blood chemistries. Because osteoarthritis is not only a disease of pain, but one characterized by behavioral, appetite, anxiety/aggression, family socialization, and sleep aberrations, the pet's owners are familiarized with the pain scale (canine orthopedic index) and additional behavioral assessment log.
The patient group is twenty-four dogs suffering from osteoarthritis, broken into eight groups of three dogs. The first group receives a control composition with no active agent; the second group receives a composition comprising HA as the sole active agent; the third group receives a composition comprising HMW HA as the sole active agent; the fourth group receives a composition comprising CBD as the sole active agent; the fifth group receives a composition comprising HA and CBD as the active agents; the sixth group receives a composition comprising HMW HA and CBD Complex as the active agents; the seventh group receives a composition comprising Rimadyl as the active agent; and the eighth group receives a composition comprising Meloxicam as the active agent.
Each composition is administered for a period of four (4) weeks. The owner completes the electronic log questionnaire each week. At the end of the 4-week study, participants have another full physical examination, including weight measurement, thigh circumference, and CBC/blood chemistries, with an exit interview of the owners to gain final impressions.
Each group is evaluated for pain scores and the scores averaged. The following scores are observed and the results depicted in FIG. 9: […]

[4] = test system: cats suffering behavior aberrations and/or anxiety; assay: Example 13: behavior aberrations and anxiety, Fe-BARQ (feline, CBD Complex); conditions: Fe-BARQ day 0 vs 60, SID, 0 (no improvement) to 3 (marked improvement)
Text: This example examines the ability of embodiments of the invention versus Clomicalm® to reduce behavior aberrations and anxiety.
The first patient group is twenty dogs suffering behavior aberrations and/or anxiety, as determined by the canine behavioral assessment and research questionnaire (“C-BARQ”). […] The second patient group is twenty cats suffering behavior aberrations and/or anxiety, as determined by the feline behavioral assessment and research questionnaire (“Fe-BARQ”).
Each group is broken into five groups of four animals. The first group receives Clomicalm® as the sole active agent; the second group receives a composition comprising HMW HA as the sole active agent; the third group receives a composition comprising CBD as the sole active agent; the fourth group receives a composition comprising HMW HA and CBD Complex as the active agents; and the fifth group receives a composition comprising HMW HA, CBD Complex, valerian root, and scutillaria as the active agents.
Each composition is administered for a period of sixty (60) days, once a day (“SID”). Owners complete the species-appropriate C-BARQ or Fe-BARQ on days 0 and 60 of treatment. The results from the overall questionnaire are averaged and characterized as no improvement (score of 0), mild improvement (score of 1), moderate improvement (score of 2), or marked improvement (score of 3).

[5] = test system: dogs suffering from seizures; assay: Example 14: seizures in dogs (CBD Complex); conditions: seizure scale 1 (seizure-free) to 10 (daily or multiple seizures); for Initial Score: day 0; for Final Score: day 60, BID
Text: This example examines the ability of embodiments of the invention versus phenobarbital to treat seizures.
The patient group is twenty-four dogs suffering from seizures as diagnosed by their referring veterinarian. The patient group is broken into six groups of four animals. The first group receives phenobarbital as the sole active agent; the second group receives a composition comprising phenobarbital and Keppra®; the third group receives a composition comprising HMW HA as the sole active agent; the fourth group receives a composition comprising CBD as the sole active agent; the fifth group receives a composition comprising HMW HA and CBD Complex as the active agents; and the sixth group receives a composition comprising HMW HA, CBD Complex, valerian root, and scutillaria as the active agents.
Each composition is administered for a period of sixty (60) days, BID. Each dog is evaluated on days 0 (“Initial Score”), 15, 30, 45, and 60 (“Final Score”) of treatment. The results are averaged and characterized on a scale of 1 (seizure-free) to 10 (daily seizures or multiple seizures during the event).
The following canine scores are observed and the results depicted in FIG. 14: […]

Molecule	Final Score [1]	Initial Score [1]	Reduction in Temperature (° F.) [2] [° F.]	Average Pain Score [3]	Average Side Effect Score [3]	Average Pain Score ([3]; listed as CBD alone)	Average Side Effect Score ([3]; listed as CBD alone)	Improvement Score [4]	Initial Score [5]	Final Score [5]	Average Pain Score ([3]; listed as HMW HA alone)	Average Side Effect Score ([3]; listed as HMW HA alone)
C=C(C)[C@@H]1CCC(C)=C[C@H]1c1c(O)cc(CCCCC)cc1O [CBD Alone, 2-[(1R,6R)-3-methyl-6-prop-1-en-2-ylcyclohex-2-en-1-yl]-5-pentylbenzene-1,3-diol]	2	0	1.7	19	0.5	not especially effective in reducing pain	even lower degree of adverse side effects	1.8	9	4	–	–
hyaluronic acid [HMW HA Alone]	3	0	1.9	16	4	–	–	1	9	5	only slightly reduce pain	low degree of adverse side effects
